Tested on: test persons
Experiment: Measuring the cooling effect: antiperspirant aerosols evaluated by test persons
Type: in vivo
From the text: Measuring the Cooling Effect
Inventive antiperspirant aerosols were produced with various cooling agents and evaluated by test persons. It was shown that the cooling agent L-menthol is employable only in very small quantities, namely in quantities below 0.1 wt %, relative to the weight of the gasified aerosol formulation, corresponding to a weight fraction of 0.66 wt %, relative to the weight of the formulation, without taking into account the propellant. […] The skin compatibility in the armpit area was also worsened by menthol above 0.1 wt %, relative to the weight of the gasified aerosol formulation, corresponding to a weight fraction of 0.66 wt %, relative to the weight of the formulation, without taking into account the propellant. […] The proportion of nonresponders, 47%, was too high, however, and could not be reduced by increasing the concentration of L-menthol without the appearance of the cited inacceptable side effects.
The formulation B including 1.0 wt % of an extract of Rumex acetosa leaf in solution/suspension in isopropyl myristate with a dry substance weight of 0.5 wt %, relative to the weight of the raw material itself, was also found to be cooling by 57% of the test persons. […] The amount of dry substance of the oily Rumex acetosa leaf extract here amounted to 0.033 wt %, relative to the weight of the inventive composition without propellant. […]

CC(C)[C@@H]1CC[C@@H](C)C[C@H]1O [L-menthol]
employable quantity of the cooling agent (relative to the weight of the formulation, without taking into account the propellant): < 0.66 wt % | employable quantity of the cooling agent (relative to the weight of the gasified aerosol formulation): below 0.1 wt %

— patent publication US20140348756A1, “WATER-FREE FORMULATIONS HAVING A COOLING EFFECT” (Henkel AG & Co. KGaA, priority 2011, published 2014)
